Assays:
[1] = molecular target: T1, Hordeum HPPD (SEQ ID NO:2) (Hordeum vulgare, UniProt O48604, A164G/R146V/R147D/R148G); assay: HPPD activity assay; assay type: biochemical; conditions: Hordeum HPPD
T1 construct: His-tag (N); made in house; host or cells: E. coli BL21 (DE3)
Description: (§1) The activity assay for HPPD is based on the analysis of homogentisic acid by reversed phase HPLC.
(§2) The assay mixture can contain 150 mM potassium phosphate buffer pH 7.0, 50 mM L-ascorbic acid, 100 μM Catalase (Sigma-Aldrich), 1 μM FeSO4 and 0.2 units of purified HPPD enzyme in a total volume of 505 μl. 1 unit is defined as the amount of enzyme that is required to produce 1 nmol of HGA per minute at 20° C.
(§3) The reaction is allowed to proceed for 45 min at room temperature. The reaction is stopped by the addition of 50 μl of 4.5 M phosphoric acid. The sample is filtered using a […] pore size PVDF filtration device. 5 μl of the cleared sample is analyzed on an UPLC HSS T3 column (particle size 1.8 μm, dimensions 2, 1×50 mm; Waters) by isocratic elution using 90% 20 mM NaH2PO4 pH 2.2, 10% methanol (v/v).
(§4) HGA is detected electrochemically at 750 mV (mode: DC; polarity: positive) and quantified by integrating peak areas (Empower software; Waters).
(§5) Inhibitors are dissolved in DMSO (dimethylsulfoxide) to a concentration of 0.5 mM. From this stock solution serial five-fold dilutions are prepared in DMSO, which are used in the assay. The respective inhibitor solution accounts for 1% of the assay volume. Thus, final inhibitor concentrations range from 5 μM to 320 pM, respectively. Activities are normalized by setting the uninhibited enzyme activity to 100%. IC50 values are calculated using non-linear regression.
(§6) Using methods which are described in the above examples or well known in the art, purified recombinant wild-type HPPD enzymes are characterized with respect to their kinetic properties and sensitivity towards HPPD inhibiting herbicides. Apparent michaelis constants (Km) and maximal reaction velocities (Vmax) are calculated by non-linear regression with the software GraphPad Prism 5 (GraphPad Software, La Jolla, USA) using a substrate inhibition model. […] Weighted means (by standard error) of Km and IC50 values are calculated from at least three independent experiments. The Cheng-Prusoff equation for competitive inhibition (Cheng, Y. C.; Prusoff, W. H. Biochem Pharmacol 1973, 22, 3099-3108) is used to calculate dissociation constants (Ki).
(§7) Field performance of the HPPD enzyme, which is used as a herbicide tolerance trait may depend not only on its lack of sensitivity towards HPPD inhibiting herbicides but also on its activity. To assess the potential performance of a herbicide tolerance trait a tolerance index (TI) is calculated using the following formula: […]
(§8) Easy comparison and ranking of each trait is enabled by normalizing tolerance indexes on Arabidopsis wild-type HPPD.

[2] = molecular target: T2, Arabidopsis HPPD (SEQ ID NO:53) (Arabidopsis thaliana, UniProt P93836); assay: HPPD activity assay (HPLC of homogentisic acid); assay type: biochemical; conditions: Arabidopsis HPPD
T2 construct: His6 (N); made in house; host or cells: E. coli BL21 (DE3)
T2 sequence (P93836 1-445): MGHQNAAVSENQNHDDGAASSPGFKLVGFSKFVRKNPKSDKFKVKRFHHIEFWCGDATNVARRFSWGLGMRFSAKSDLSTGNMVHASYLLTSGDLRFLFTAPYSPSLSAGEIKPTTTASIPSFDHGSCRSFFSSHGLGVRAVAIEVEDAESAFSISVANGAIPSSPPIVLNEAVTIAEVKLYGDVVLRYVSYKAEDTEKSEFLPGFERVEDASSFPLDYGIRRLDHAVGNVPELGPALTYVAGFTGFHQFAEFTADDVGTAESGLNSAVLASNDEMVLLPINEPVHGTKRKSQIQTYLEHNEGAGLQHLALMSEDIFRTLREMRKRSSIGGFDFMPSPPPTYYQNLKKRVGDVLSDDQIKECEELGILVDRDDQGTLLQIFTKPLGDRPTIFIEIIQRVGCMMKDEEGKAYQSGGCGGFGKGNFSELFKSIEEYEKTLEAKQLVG
Description: as §1, §2, §3, §4, §5, §6, §7, §8

[3] = turnover number, substrate 4-HPP
[4] = read-out: Km [μM] (4-HPP), apparent michaelis constant

T1 sequence (O48604 whole entry R146V/R147D/R148G/A164G): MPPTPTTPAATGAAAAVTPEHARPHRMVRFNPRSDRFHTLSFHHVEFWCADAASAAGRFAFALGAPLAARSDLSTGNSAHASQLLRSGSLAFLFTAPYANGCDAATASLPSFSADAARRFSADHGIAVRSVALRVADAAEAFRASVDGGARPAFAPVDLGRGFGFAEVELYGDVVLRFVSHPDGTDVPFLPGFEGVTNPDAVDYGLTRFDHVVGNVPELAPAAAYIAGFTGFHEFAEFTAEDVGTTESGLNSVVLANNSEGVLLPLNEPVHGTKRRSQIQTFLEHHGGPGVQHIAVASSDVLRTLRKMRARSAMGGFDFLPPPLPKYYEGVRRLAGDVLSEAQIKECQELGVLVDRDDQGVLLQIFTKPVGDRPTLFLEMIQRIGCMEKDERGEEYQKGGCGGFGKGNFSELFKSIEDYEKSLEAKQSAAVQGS

O=C(O)C(=O)Cc1ccc(O)cc1 [Inhibitor 4-HPP, 4-hydroxyphenylpyruvate]
kcat [1, 3]: 11.5 s⁻¹
Km [1, 4]: 26 µM
kcat [2, 3]: 12.9 s⁻¹
Km [2, 4]: 13 µM
